{"source": "paper PMC12073402", "about": "“A Selective MAP3K1 Inhibitor Facilitates Discovery of NPM1 as a Member of the Network” (Molecules, 2025)", "assay_in_all_cases": "KiNativ kinome profiling in PANC-1 lysate", "format_in_all_cases": "binding", "key": {"CaMK2g": {"molecular_target": "T1, CaMK2g (Homo sapiens, UniProt Q13555)", "T1 construct": "endogenous in cells; host or cells: PANC-1 cell lysate", "settings": "Lys1", "how_it_was_run": "(§1)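 PANC-1 lysates were incubated with 5 μM inhibitor or DMSO, then labeled with a desthiobiotin-ATP acyl-phosphate probe that biotinylates conserved kinase lysines. Tryptic peptides were streptavidin-enriched and quantified by LC-MS/MS, reported as % change in MS signal from duplicate treated and duplicate control samples.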"}, "ATM": {"molecular_target": "T2, ATM (Homo sapiens, UniProt Q13315)", "T2 construct": "endogenous in cells; host or cells: PANC-1 cell lysate", "settings": "ATP", "how_it_was_run": "as §1"}, "Erk1": {"molecular_target": "T3, Erk1 (Homo sapiens, UniProt P27361)", "T3 construct": "endogenous in cells; host or cells: PANC-1 lysate", "T3 sequence (P27361 whole entry)": "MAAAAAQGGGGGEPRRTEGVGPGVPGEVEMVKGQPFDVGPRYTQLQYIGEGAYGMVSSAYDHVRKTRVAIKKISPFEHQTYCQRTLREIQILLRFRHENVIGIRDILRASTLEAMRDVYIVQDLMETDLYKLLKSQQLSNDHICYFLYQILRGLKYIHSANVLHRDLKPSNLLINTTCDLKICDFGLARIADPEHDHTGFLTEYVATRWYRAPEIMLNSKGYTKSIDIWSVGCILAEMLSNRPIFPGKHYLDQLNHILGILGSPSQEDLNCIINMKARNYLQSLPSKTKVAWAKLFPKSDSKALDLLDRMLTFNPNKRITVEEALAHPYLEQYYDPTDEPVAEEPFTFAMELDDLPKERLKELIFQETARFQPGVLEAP", "settings": "Lys2", "how_it_was_run": "as §1"}, "MAP2K1, MAP2K2": {"tested_on": "MAP2K1, MAP2K2", "settings": "5 µM", "how_it_was_run": "as §1"}, "SLK": {"molecular_target": "T4, SLK (Homo sapiens, UniProt Q9H2G2)", "T4 construct": "endogenous in cells; host or cells: PANC-1 cell lysate", "T4 sequence (Q9H2G2 whole entry)": "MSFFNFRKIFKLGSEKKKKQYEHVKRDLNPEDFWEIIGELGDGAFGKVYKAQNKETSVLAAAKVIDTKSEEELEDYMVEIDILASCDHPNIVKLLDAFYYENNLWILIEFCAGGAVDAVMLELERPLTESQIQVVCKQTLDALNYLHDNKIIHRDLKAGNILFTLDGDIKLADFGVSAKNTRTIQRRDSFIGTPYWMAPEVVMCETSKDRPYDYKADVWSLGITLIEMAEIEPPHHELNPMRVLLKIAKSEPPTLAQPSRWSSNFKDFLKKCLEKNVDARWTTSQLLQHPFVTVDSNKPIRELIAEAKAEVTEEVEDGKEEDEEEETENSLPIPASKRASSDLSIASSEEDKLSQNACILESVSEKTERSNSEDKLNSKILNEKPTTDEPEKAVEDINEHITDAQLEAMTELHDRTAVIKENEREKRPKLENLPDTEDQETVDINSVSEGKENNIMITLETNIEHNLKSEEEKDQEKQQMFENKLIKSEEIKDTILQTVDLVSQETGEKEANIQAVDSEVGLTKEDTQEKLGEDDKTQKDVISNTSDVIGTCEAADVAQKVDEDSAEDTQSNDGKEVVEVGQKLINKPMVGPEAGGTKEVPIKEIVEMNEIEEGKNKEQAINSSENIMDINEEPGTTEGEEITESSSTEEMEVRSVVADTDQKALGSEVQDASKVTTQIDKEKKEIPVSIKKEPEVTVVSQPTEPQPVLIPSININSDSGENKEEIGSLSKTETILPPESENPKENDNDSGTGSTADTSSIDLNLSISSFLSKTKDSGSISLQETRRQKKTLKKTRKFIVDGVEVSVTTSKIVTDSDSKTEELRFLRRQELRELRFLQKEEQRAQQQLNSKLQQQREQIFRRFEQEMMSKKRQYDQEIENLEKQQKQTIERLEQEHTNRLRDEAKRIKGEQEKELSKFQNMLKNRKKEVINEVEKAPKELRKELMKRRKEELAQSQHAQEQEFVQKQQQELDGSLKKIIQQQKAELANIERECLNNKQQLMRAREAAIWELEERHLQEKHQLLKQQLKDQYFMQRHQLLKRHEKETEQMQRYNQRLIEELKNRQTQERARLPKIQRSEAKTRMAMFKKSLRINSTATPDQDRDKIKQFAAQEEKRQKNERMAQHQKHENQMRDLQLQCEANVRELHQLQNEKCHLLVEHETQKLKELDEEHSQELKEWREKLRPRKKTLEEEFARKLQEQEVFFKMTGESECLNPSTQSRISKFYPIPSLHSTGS", "how_it_was_run": "as §1"}, "GCN2 domain2": {"molecular_target": "T5, GCN2 domain2 (Homo sapiens, UniProt Q9P2K8)", "T5 construct": "we opted to conduct a kinome screen (KiNativ) in PANC-1 cell lysates; endogenous in cells; host or cells: PANC-1 cell lysate", "T5 sequence (Q9P2K8 whole entry, the tested form may be a part)": "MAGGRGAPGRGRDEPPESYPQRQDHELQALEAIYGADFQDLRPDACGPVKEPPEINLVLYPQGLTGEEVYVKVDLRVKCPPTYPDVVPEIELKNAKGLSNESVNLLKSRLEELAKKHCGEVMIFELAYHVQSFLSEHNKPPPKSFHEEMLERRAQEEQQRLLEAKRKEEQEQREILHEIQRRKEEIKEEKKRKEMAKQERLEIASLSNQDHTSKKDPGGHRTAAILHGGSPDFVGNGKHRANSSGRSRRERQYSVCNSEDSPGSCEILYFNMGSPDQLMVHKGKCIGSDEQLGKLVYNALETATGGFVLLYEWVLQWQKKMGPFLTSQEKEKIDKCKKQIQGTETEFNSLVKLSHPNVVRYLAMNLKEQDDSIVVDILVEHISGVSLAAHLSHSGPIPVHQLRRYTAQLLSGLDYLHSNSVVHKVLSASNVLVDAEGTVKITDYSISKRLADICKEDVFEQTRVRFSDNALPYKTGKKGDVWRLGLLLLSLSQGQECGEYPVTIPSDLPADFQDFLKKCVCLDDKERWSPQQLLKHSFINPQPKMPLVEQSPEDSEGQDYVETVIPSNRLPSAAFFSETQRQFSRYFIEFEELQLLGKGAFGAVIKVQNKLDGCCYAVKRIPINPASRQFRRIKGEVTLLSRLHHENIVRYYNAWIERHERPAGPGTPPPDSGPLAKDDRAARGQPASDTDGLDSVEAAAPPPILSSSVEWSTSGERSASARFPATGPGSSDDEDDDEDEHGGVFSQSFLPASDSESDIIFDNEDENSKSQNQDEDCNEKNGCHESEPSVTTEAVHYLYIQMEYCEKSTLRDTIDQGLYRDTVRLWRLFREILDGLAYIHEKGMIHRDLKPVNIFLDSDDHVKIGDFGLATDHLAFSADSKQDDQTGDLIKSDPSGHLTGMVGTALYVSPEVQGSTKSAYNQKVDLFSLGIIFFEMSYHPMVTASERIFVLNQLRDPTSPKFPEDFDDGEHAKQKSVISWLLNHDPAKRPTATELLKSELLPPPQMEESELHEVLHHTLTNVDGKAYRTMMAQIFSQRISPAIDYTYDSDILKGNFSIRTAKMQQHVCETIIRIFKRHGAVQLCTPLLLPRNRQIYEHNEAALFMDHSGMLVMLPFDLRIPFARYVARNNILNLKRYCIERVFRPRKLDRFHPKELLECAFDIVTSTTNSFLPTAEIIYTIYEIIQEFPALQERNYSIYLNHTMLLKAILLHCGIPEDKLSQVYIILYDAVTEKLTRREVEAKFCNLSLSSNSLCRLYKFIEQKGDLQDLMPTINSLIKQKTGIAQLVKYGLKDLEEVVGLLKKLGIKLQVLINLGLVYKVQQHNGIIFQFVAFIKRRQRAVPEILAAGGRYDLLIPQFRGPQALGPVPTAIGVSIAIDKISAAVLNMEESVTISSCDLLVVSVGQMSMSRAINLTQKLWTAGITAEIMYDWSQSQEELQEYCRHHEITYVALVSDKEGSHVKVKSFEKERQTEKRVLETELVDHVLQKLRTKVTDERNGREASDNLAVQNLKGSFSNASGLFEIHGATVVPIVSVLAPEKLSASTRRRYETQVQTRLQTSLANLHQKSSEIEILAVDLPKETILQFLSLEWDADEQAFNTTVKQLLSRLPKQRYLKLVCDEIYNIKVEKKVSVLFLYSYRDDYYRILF", "how_it_was_run": "as §1"}, "SRPK1, SRPK2": {"tested_on": "SRPK1, SRPK2", "settings": "5 µM; Lys1; FVAMKVVK", "how_it_was_run": "as §1"}, "CHED": {"molecular_target": "T6, CHED (Homo sapiens, UniProt Q14004)", "T6 construct": "endogenous in cells; host or cells: PANC-1 cell lysate", "settings": "Lys2", "how_it_was_run": "as §1"}, "CHK1": {"molecular_target": "T7, CHK1 (Homo sapiens, UniProt O14757)", "T7 construct": "endogenous in cells; host or cells: PANC-1 cell lysate", "T7 sequence (O14757 whole entry)": "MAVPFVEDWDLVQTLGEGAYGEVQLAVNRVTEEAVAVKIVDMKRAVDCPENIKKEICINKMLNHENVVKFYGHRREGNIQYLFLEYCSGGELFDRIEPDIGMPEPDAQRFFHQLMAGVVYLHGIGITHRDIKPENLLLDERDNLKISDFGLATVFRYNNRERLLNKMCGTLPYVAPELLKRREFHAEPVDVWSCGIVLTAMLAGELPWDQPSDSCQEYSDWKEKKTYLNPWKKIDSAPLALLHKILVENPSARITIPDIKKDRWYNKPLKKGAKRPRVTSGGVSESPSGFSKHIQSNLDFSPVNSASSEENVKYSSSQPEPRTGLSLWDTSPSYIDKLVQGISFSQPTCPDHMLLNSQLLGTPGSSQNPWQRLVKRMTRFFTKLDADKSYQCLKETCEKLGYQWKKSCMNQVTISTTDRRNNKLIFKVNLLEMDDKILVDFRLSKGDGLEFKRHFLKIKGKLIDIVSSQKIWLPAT", "settings": "Lys2", "how_it_was_run": "as §1"}, "IKKb": {"molecular_target": "T8, IKKb (Homo sapiens, UniProt O14920)", "T8 construct": "we opted to conduct a kinome screen (KiNativ) in PANC-1 cell lysates; endogenous in cells; host or cells: PANC-1 cell lysate", "T8 sequence (O14920 1-756)": "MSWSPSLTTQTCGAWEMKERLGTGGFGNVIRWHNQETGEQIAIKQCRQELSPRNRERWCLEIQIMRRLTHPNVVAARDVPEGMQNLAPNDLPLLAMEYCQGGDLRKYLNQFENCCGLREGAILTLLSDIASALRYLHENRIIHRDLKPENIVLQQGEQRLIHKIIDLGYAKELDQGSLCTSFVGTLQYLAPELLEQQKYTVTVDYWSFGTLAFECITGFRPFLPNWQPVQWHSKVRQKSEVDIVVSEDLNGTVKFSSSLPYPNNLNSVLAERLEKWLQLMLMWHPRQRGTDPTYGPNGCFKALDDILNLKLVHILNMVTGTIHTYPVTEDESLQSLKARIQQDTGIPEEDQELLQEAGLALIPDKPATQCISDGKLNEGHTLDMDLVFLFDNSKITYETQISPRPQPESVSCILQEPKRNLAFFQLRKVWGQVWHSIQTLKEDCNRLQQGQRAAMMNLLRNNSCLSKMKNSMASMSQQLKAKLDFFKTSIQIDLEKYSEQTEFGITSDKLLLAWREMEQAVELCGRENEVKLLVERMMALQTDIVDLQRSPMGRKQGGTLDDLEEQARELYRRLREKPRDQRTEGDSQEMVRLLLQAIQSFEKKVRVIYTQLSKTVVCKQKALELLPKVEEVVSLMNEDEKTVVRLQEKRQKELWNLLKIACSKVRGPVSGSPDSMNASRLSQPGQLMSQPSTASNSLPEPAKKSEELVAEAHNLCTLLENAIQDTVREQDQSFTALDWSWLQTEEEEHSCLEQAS", "how_it_was_run": "as §1"}, "ROCK1": {"molecular_target": "T9, ROCK1 (Homo sapiens, UniProt Q13464)", "T9 construct": "endogenous in cells; host or cells: PANC-1 cell lysate", "settings": "Other", "how_it_was_run": "as §1"}, "RSK1 domain1": {"molecular_target": "T10, RSK1 domain1 (Homo sapiens, UniProt Q15418)", "T10 construct": "endogenous in cells; host or cells: PANC-1 cell lysate", "settings": "ATP Loop", "how_it_was_run": "as §1"}, "PKCa, PKCb": {"tested_on": "PKCa, PKCb", "settings": "5 µM; Lys2; DLKLDNVMLDSEGHIK", "how_it_was_run": "as §1"}, "[1]": {"tested_on": "FGFR1, FMS, PDGFRb, TYRO3", "settings": "5 µM; Lys1; VAVKMLK", "how_it_was_run": "as §1"}, "TAO2": {"molecular_target": "T11, TAO2 (Homo sapiens, UniProt Q9UL54)", "T11 construct": "endogenous in cells; host or cells: PANC-1 cell lysate", "settings": "Lys2", "how_it_was_run": "as §1"}, "p70S6K": {"molecular_target": "T12, p70S6K (Homo sapiens, UniProt P23443)", "T12 construct": "endogenous in cells; host or cells: PANC-1 cell lysate", "settings": "Lys2", "how_it_was_run": "as §1"}, "MET": {"molecular_target": "T13, MET (Homo sapiens, UniProt P08581)", "T13 construct": "endogenous in cells; host or cells: PANC-1", "T13 sequence (P08581 25-1390)": "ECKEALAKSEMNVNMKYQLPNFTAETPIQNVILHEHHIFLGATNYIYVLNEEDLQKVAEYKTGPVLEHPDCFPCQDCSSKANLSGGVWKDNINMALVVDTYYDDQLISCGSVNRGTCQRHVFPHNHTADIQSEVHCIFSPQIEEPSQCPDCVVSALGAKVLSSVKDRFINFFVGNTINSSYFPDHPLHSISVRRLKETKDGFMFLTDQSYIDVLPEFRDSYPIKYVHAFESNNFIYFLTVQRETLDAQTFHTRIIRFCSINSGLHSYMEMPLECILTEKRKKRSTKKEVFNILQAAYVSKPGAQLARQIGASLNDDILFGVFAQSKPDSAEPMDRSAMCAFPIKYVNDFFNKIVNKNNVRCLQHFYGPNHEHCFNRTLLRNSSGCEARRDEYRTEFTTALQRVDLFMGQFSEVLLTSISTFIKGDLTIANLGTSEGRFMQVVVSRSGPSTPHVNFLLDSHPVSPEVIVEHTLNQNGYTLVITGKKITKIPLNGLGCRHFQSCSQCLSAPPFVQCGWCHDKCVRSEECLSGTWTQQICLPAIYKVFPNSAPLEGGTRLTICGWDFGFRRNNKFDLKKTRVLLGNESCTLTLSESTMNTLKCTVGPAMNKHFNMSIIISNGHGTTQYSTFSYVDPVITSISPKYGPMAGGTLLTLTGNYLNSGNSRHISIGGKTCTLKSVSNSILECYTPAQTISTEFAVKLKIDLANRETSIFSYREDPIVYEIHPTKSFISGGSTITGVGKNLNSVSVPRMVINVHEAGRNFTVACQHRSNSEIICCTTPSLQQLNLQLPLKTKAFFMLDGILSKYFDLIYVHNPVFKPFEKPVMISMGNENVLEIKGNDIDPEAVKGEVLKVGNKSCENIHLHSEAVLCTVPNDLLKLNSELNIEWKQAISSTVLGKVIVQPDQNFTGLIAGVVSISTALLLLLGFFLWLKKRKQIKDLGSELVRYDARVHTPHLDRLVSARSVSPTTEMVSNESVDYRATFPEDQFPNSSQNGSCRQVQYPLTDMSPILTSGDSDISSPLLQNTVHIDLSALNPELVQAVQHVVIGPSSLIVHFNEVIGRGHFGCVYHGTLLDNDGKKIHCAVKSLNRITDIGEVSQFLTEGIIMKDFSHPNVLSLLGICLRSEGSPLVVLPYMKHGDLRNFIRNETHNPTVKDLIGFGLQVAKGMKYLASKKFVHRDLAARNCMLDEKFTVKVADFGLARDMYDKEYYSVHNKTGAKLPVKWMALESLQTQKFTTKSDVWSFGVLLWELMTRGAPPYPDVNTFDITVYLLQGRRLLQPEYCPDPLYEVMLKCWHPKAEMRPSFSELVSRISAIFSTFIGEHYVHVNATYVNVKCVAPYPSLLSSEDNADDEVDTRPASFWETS", "settings": "ATP Loop", "how_it_was_run": "as §1"}, "CDK4": {"molecular_target": "T14, CDK4 (Homo sapiens, UniProt P11802)", "T14 construct": "endogenous in cells; host or cells: PANC-1 cell lysate", "settings": "Lys2", "how_it_was_run": "as §1"}}}
{"smiles": "Cn1cc(-c2cnc3ccc(NC(=O)Nc4ccc(F)c(C(F)(F)F)c4)cc3n2)cn1", "note": "[51-106, 1-(4-Fluoro-3-(trifluoromethyl)phenyl)-3-(3-(1-methyl-1H-pyrazol-4-yl)quinoxalin-6-yl)urea]", "values": [{"measurement": "inhibition at 5 µM", "setting": "CaMK2g", "value": 7.1, "unit": "%"}, {"measurement": "inhibition at 5 µM", "setting": "ATM", "value": 7.4, "unit": "%"}, {"measurement": "inhibition at 5 µM", "setting": "Erk1", "value": "≤ 0", "unit": "%"}, {"measurement": "% Inhibition", "setting": "MAP2K1, MAP2K2; Lys1, KLIHLEIKPAIR", "value": "NB (NB = No Binding (≤ 0))"}, {"measurement": "% Inhibition", "setting": "MAP2K1, MAP2K2; Lys2, DVKPSNILVNSR", "value": 1.2, "unit": "%"}, {"measurement": "inhibition at 5 µM", "setting": "SLK; Lys1, AQNKETSVLAAAKVIDTK", "value": "≤ 0", "unit": "%"}, {"measurement": "inhibition at 5 µM", "setting": "SLK; Lys2, DLKAGNILFTLDGDIK", "value": 7, "unit": "%"}, {"measurement": "inhibition at 5 µM", "setting": "GCN2 domain2; Lys1, LDGCCYAVKR", "value": 5.3, "unit": "%"}, {"measurement": "inhibition at 5 µM", "setting": "GCN2 domain2; Lys2, DLKPVNIFLDSDDHVK", "value": "≤ 0", "unit": "%"}, {"measurement": "% Inhibition", "setting": "SRPK1, SRPK2", "value": "NB (NB = No Binding (≤ 0))"}, {"measurement": "inhibition at 5 µM", "setting": "CHED", "value": "≤ 0", "unit": "%"}, {"measurement": "inhibition at 5 µM", "setting": "CHK1", "value": "≤ 0", "unit": "%"}, {"measurement": "inhibition at 5 µM", "setting": "IKKb; Lys1, WHNQETGEQIAIKQCR", "value": 0.1, "unit": "%"}, {"measurement": "inhibition at 5 µM", "setting": "IKKb; Lys2, DLKPENIVLQQGEQR", "value": "≤ 0", "unit": "%"}, {"measurement": "inhibition of IKKβ (in words)", "setting": "IKKb; 5 μM, PANC-1 lysate", "value": "not inhibited"}, {"measurement": "inhibition at 5 µM", "setting": "ROCK1", "value": "≤ 0", "unit": "%"}, {"measurement": "inhibition at 5 µM", "setting": "RSK1 domain1", "value": "≤ 0", "unit": "%"}, {"measurement": "% Inhibition", "setting": "PKCa, PKCb", "value": "NB (NB = No Binding (≤ 0))"}, {"measurement": "% Inhibition", "setting": "[1]", "value": "NB (NB = No Binding (≤ 0))"}, {"measurement": "inhibition at 5 µM", "setting": "TAO2", "value": 5.5, "unit": "%"}, {"measurement": "inhibition at 5 µM", "setting": "p70S6K", "value": "≤ 0", "unit": "%"}, {"measurement": "inhibition at 5 µM", "setting": "MET", "value": 8.3, "unit": "%"}, {"measurement": "inhibition at 5 µM", "setting": "CDK4", "value": 3.2, "unit": "%"}]}
